DBAASP
In brackets after ≈: the same amount, converted by molar mass. Each block holds one molecule with its values, some of them ahead of it.

What was measured:
Assay in all cases: ≥ marks a high value that may be exact or a test limit, other limits are often not marked, values filed in µg/mL are converted to µM
[1] = tested on: Escherichia coli ATCC 11775
[2] = tested on: Escherichia coli ATCC 25922
[3] = tested on: Escherichia coli ATCC 35218
[4] = tested on: Salmonella enterica subsp. enterica serovar Typhi Vi+
[5] = tested on: Salmonella enterica subsp. enterica serovar Typhimurium ATCC 14028
[6] = tested on: Candida albicans NCPF 1467
[7] = tested on: Escherichia coli NCTC 10418
[8] = tested on: Staphylococcus aureus ATCC 12493
[9] = tested on: Staphylococcus aureus NCTC 10788
[10] = tested on: Enterococcus faecalis ATCC 29212
Escherichia coli ML-35p = tested on: Escherichia coli ML-35p
[11] = tested on: Pseudomonas aeruginosa ATCC 27853
[12] = tested on: Staphylococcus aureus ATCC 25923
[13] = tested on: Staphylococcus aureus ATCC BAA-44
[14] = tested on: Acinetobacter baumannii Q12-0809
[15] = tested on: Acinetobacter baumannii Q12-0867
[16] = tested on: Acinetobacter baumannii Q13-0717
[17] = tested on: Campylobacter jejuni NCTC 11351
Campylobacter jejuni = tested on: Campylobacter jejuni
[18] = tested on: Enterococcus faecalis JH-2-2
Escherichia coli K-12 = tested on: Escherichia coli K-12
Escherichia coli = tested on: Escherichia coli
[19] = tested on: Klebsiella pneumoniae ATCC 700603
[20] = tested on: Klebsiella pneumoniae NCTC 13442
[21] = tested on: Klebsiella pneumoniae Q14-0095
[22] = tested on: Klebsiella pneumoniae Q14-0285
[23] = tested on: Listeria monocytogenes NCTC 11994
[24] = tested on: Pseudomonas aeruginosa PAO1
[25] = tested on: Pseudomonas aeruginosa Q12-0581
[26] = tested on: Pseudomonas aeruginosa Q14-0208
[27] = tested on: Pseudomonas aeruginosa Q14-0890
[28] = tested on: Salmonella typhimurium SL1344
[29] = tested on: Staphylococcus aureus ATCC 29213
[30] = tested on: Staphylococcus aureus MRSA-15
[31] = tested on: Staphylococcus aureus NCTC 12493
[32] = tested on: Staphylococcus aureus Q14-0320
[33] = tested on: Staphylococcus aureus RN4220
Acinetobacter baumannii = tested on: Acinetobacter baumannii
[34] = tested on: Bacillus subtilis CGMCC 1.3376
[35] = tested on: Escherichia coli CGMCC 1.8732
[36] = tested on: Klebsiella pneumoniae CGMCC 1.1736
[37] = tested on: Pseudomonas aeruginosa CGMCC 1.2421
[38] = tested on: Staphylococcus aureus CGMCC 1.8721
[39] = tested on: Staphylococcus epidermidis CGMCC 1.4260

MIC [1]: 0.6 µM (≈ 1.31 µg/mL)
MIC [2]: 0.4 µM (≈ 0.874 µg/mL)
MIC [3]: 0.2 µM (≈ 0.437 µg/mL)
MIC [4]: 3 µM (≈ 6.55 µg/mL)
MIC [5]: 2 µM (≈ 4.37 µg/mL)
Compound: CC[C@H](C)[C@H](NC(=O)[C@@H]1CCCN1C(=O)[C@H](CCCN=C(N)N)NC(=O)[C@@H]1CCCN1C(=O)[C@H](Cc1cnc[nH]1)NC(=O)[C@H](CO)NC(=O)[C@H](CO)NC(=O)[C@@H]1CCCN1C(=O)[C@H](CCCN=C(N)N)NC(=O)[C@@H]1CCCN1C(=O)[C@H](CO)NC(=O)[C@H](Cc1ccc(O)cc1)NC(=O)[C@@H]1CCCN1C(=O)[C@H](CCCN=C(N)N)NC(=O)[C@@H]1CCCN1C(=O)[C@H](CCCCN)NC(=O)CN)C(=O)N[C@@H](CCCN=C(N)N)C(=O)N[C@H](C(=O)O)C(C)C [GKPRPYSPRPSSHPRPIRV]

MIC [6]: ≥ 512 µM
MIC [7]: ≥ 512 µM
MIC [8]: ≥ 512 µM
MIC [9]: ≥ 128 µM
Compound: CC(C)C[C@H](NC(=O)[C@H](CC(C)C)NC(=O)[C@H](CC(C)C)NC(=O)[C@@H]1CCCN1C(=O)[C@H](CC(C)C)NC(=O)[C@@H](N)Cc1ccccc1)C(=O)N[C@@H](C)C(=O)NCC(=O)N[C@@H](CC(C)C)C(=O)N1CCC[C@H]1C(=O)N[C@@H](CO)C(=O)N[C@@H](Cc1ccccc1)C(=O)N[C@@H](CC(C)C)C(=O)N[C@H]1CSSC[C@@H](C(=O)O)NC(=O)[C@H](CCCCN)NC(=O)[C@H](CCCCN)NC(=O)[C@H](Cc2ccccc2)NC(=O)[C@H](C(C)C)NC(=O)[C@H](CC(C)C)NC1=O [FLPLLLAGLPSFLCLVFKKC]

MIC [10]: 50 µM (≈ 90.3 µg/mL)
MIC [2]: 6.3 µM (≈ 11.4 µg/mL)
MIC (Escherichia coli ML-35p): 1.6 µM (≈ 2.89 µg/mL)
MIC [11]: 3 µM (≈ 5.42 µg/mL)
MIC [12]: 3 µM (≈ 5.42 µg/mL)
MIC [13]: 6.3 µM (≈ 11.4 µg/mL)
Compound: CC[C@H](C)[C@H](NC(=O)[C@H](CCCCN)NC(=O)[C@H](CC(C)C)NC(=O)[C@H](CC(C)C)NC(=O)[C@@H]1CCCN1C(=O)CNC(=O)[C@H](CC(C)C)NC(=O)[C@H](CCCCN)NC(=O)CN)C(=O)N[C@@H](C)C(=O)N[C@@H](C)C(=O)N[C@@H](CCCCN)C(=O)N[C@H](C(=O)NCC(=O)N[C@@H](CO)C(=O)N[C@@H](CCCCN)C(=O)N[C@@H](CC(C)C)C(=O)N[C@@H](CC(C)C)C(N)=O)C(C)C [GKLGPLLKIAAKVGSKLL]

MIC [14]: 12.3 µM (≈ 32 µg/mL)
MIC [15]: 24.6 µM (≈ 64 µg/mL)
MIC [16]: ≥ 49.2 µM
MIC [17]: ≥ 49.2 µM
MIC (Campylobacter jejuni): ≥ 49.2 µM
MIC [18]: 24.6 µM (≈ 64 µg/mL)
MIC (Escherichia coli K-12): 24.6 µM (≈ 64 µg/mL)
MIC (Escherichia coli): > 49.2 µM
MIC [19]: 49.2 µM (≈ 128 µg/mL)
MIC [20]: ≥ 49.2 µM
MIC [21]: ≥ 49.2 µM
MIC [22]: 24.6 µM (≈ 64 µg/mL)
MIC [23]: 24.6 µM (≈ 64 µg/mL)
MIC [11]: > 49.2 µM
MIC [24]: 197 µM (≈ 512 µg/mL)
MIC [25]: ≥ 49.2 µM
MIC [26]: ≥ 49.2 µM
MIC [27]: 24.6 µM (≈ 64 µg/mL)
MIC [28]: 12.3 µM (≈ 32 µg/mL)
MIC [29]: > 49.2 µM
MIC [30]: ≥ 49.2 µM
MIC [31]: 12.3 µM (≈ 32 µg/mL)
MIC [32]: ≥ 49.2 µM
MIC [33]: ≥ 49.2 µM
Compound: CC(C)C[C@H](NC(=O)[C@H](Cc1cnc[nH]1)NC(=O)[C@H](Cc1ccccc1)NC(=O)[C@H](Cc1ccccc1)NC(=O)[C@H](CCCN=C(N)N)NC(=O)[C@H](CCCCN)NC(=O)[C@H](CO)NC(=O)[C@H](CCCN=C(N)N)NC(=O)[C@H](Cc1cnc[nH]1)NC(=O)[C@H](CC(C)C)NC(=O)[C@H](Cc1ccccc1)NC(=O)[C@H](CCCCN)NC(=O)[C@H](CCCN=C(N)N)NC(=O)[C@H](Cc1ccc(O)cc1)NC(=O)CNC(=O)[C@@H](NC(=O)[C@H](Cc1cnc[nH]1)NC(=O)[C@H](CC(C)C)NC(=O)[C@@H](N)C(C)C)[C@@H](C)O)C(=O)N[C@@H](CCCN=C(N)N)C(=O)O [VLHTGYRKFLHRSKRFFHLR]

MIC (Acinetobacter baumannii): 12.5 µM (≈ 32.2 µg/mL)
MIC [34]: 12.5 µM (≈ 32.2 µg/mL)
MIC [35]: 12.5 µM (≈ 32.2 µg/mL)
MIC [36]: 12.5 µM (≈ 32.2 µg/mL)
MIC [37]: 12.5 µM (≈ 32.2 µg/mL)
MIC [38]: ≥ 100 µM
MIC [39]: 6.25 µM (≈ 16.1 µg/mL)
Compound: CC[C@H](C)[C@H](NC(=O)[C@H](CO)NC(=O)CNC(=O)[C@@H](NC(=O)[C@@H](N)CCCN=C(N)N)[C@@H](C)CC)C(=O)N[C@@H](CC(C)C)C(=O)NCC(=O)N[C@@H](CCCN=C(N)N)C(=O)N[C@@H](CC(C)C)C(=O)N[C@@H](C)C(=O)N[C@@H](CCCCN)C(=O)NCC(=O)N[C@@H](CC(C)C)C(=O)N1CCC[C@H]1C(=O)N[C@H](C(=O)N[C@@H](CC(C)C)C(=O)N[C@@H](CCCCN)C(=O)N[C@@H](CO)C(=O)N[C@@H](Cc1c[nH]c2ccccc12)C(=O)N[C@H](C(=O)N[C@@H](CCCCN)C(=O)N[C@@H](CC(N)=O)C(=O)N[C@@H](CCCN=C(N)N)C(N)=O)[C@@H](C)CC)[C@@H](C)O [RIGSILGRLAKGLPTLKSWIKNR]
